Laboratory results taken from article PMC9866366 (Pharmaceutics, 2023).
Square brackets hold non-standard residues; d marks the D form. Peptide text beside a SMILES is read from it. * marks the point of attachment. Alaψ(CH2NMeCH2CH2OH) = C[C@@H](CN(C)CCO)N*; Cha = N[C@@H](CC1CCCCC1)C(=O)O; Lauroyl = CCCCCCCCCCCC(=O)*; Decanoyl = CCCCCCCCCC(=O)*; Octanoyl = CCCCCCCC(=O)*; Hexanoyl = CCCCCC(=O)*; Aib = CC(C)(N)C(=O)O; Propionyl = CCC(=O)*; Butyryl = CCCC(=O)*

How the values were obtained:
BxPC-3 cells [1] = assay: PrestoBlue cell viability assay, comparative cytotoxicity assay under 'low glucose'; assay type: cell-based, human; settings: 24 h exposure; for IC50: 'low glucose' RPMI 1640 (no glucose added), 50.8 pM to 1 µM, three independent experiments each in technical duplicate; for AUC, PrestoBlue, BxPC-3 / Emax @ 1 µM, PrestoBlue, BxPC-3: 'low glucose', three independent experiments in duplicate; for AUC, PrestoBlue, BxPC-3: area under viability-concentration curve, baseline y = 0; for Emax @ 1 µM, PrestoBlue, BxPC-3: response (percent viability) at highest concentration 1 µM
Description: (§1) Endpoint fluorescence was quantified as described above.

PANC-1 cells [2] = assay: as above; assay type: cell-based, human; settings: 24 h exposure; for IC50: 'low glucose' DMEM (no glucose added), 457 pM to 9 µM, three independent experiments each in technical duplicate; for AUC, PrestoBlue, PANC-1 / Emax @ 9 µM, PrestoBlue, PANC-1: 'low glucose', three independent experiments in duplicate; for AUC, PrestoBlue, PANC-1: area under viability-concentration curve, baseline y = 0; for Emax @ 9 µM, PrestoBlue, PANC-1: response (percent viability) at highest concentration 9 µM
Description: as §1

BxPC-3 cells [3] = assay: CyQUANT Direct cell proliferation assay, comparative cytotoxicity assay under 'low glucose'; assay type: cell-based, human; settings: 24 h exposure; for IC50: 'low glucose' RPMI 1640 (no glucose added), 50.8 pM to 1 µM, three independent experiments each in technical duplicate; for AUC, CyQUANT Direct, BxPC-3 / Emax @ 1 µM, CyQUANT Direct, BxPC-3: 'low glucose', three independent experiments in duplicate; for AUC, CyQUANT Direct, BxPC-3: area under viability-concentration curve, baseline y = 0; for Emax @ 1 µM, CyQUANT Direct, BxPC-3: response (percent viability) at highest concentration 1 µM
Description: as §1

PANC-1 cells [4] = assay: as above; assay type: cell-based, human; settings: 24 h exposure; for IC50: 'low glucose' DMEM (no glucose added), 457 pM to 9 µM, three independent experiments each in technical duplicate; for AUC, CyQUANT Direct, PANC-1 / Emax @ 9 µM, CyQUANT Direct, PANC-1: 'low glucose', three independent experiments in duplicate; for AUC, CyQUANT Direct, PANC-1: area under viability-concentration curve, baseline y = 0; for Emax @ 9 µM, CyQUANT Direct, PANC-1: response (percent viability) at highest concentration 9 µM
Description: as §1

BxPC-3 cells [5] = settings: 24 h exposure, medium with or without 5 mM glucose, up to 1 µM
Protocol: (§2) Cells were seeded at a density of 25,000 cells/well (BxPC-3) and 30,000 cells/well (PANC-1) in Nunc MicroWell 96-Well Black Optical-Bottom Plates with Polymer Base (total volume: 100 µL). Cells were first incubated overnight at 37 °C, 5% CO2 to permit adherence, after which the medium in each well was aspirated, briefly washed once with 100 µL/well of PBS (pH 7.4) and replaced with 100 µL of either RPMI 1640 (BxPC-3, #11879020) or DMEM (PANC-1, #11966025) supplemented with or without 5 mM glucose to create the ‘normal glucose’ and ‘low glucose’ media, respectively. This 5 mM glucose concentration was selected to reflect the physiological concentration of glucose in plasma. Each well was then exposed to the peptides in duplicate at a concentration range of 50.8 pM to 1 µM (BxPC-3) or 457 pM to 9 µM (PANC-1) for 24 h (threefold serial dilution in the corresponding ‘normal glucose’ or ‘low glucose’ media, ten steps). Endpoint fluorescence was quantified as described above.
(§3) Blank correction (wells containing medium only) was first performed on the raw fluorescence–concentration data from the plate reader. Cell viability was then calculated as a percentage by normalizing to the fluorescence of the wells containing the lowest drug concentration (50.8 pM for BxPC-3, 457 pM for PANC-1). The resulting data from three independent experiments (each in technical duplicate) was then plotted on GraphPad Prism 9 and analyzed using the built-in ‘[Inhibitor] vs. response—Variable slope (four parameters)’ equation.

PANC-1 cells [6] = settings: 24 h exposure, medium with or without 5 mM glucose, up to 9 µM
Protocol: as §2, §3

BxPC-3 cells [7] = assay: Initial cytotoxicity assay (PrestoBlue and CyQUANT Direct Confirmation Assay), 25 mM glucose; assay type: cell-based, human; settings: 3-day (72 h) incubation, RPMI-1640 with 25 mM glucose, up to highest concentration tested of 1 µM, both viability assays
Protocol: The CyQUANT™ Direct Cell Proliferation Assay was subsequently performed by mixing the CyQUANT™ Direct nucleic acid stain, CyQUANT™ Direct background suppressor I, and PBS (pH 7.4) as per the vendor instructions, then adding 100 µL of this mixture into each well. The plate was returned into the incubator for a further 1 h, and the endpoint fluorescence bottom-read at the Ex/Em wavelength of 485/538 nm on the SpectraMax iD3 plate reader. Blank wells (medium only) and two negative controls—(1) cells + medium, (2) cells + medium + 0.3% v/v DMSO (equivalent to 1 µM peptide)—were set up in the plate for each experiment.

Molecule | IC50 (BxPC-3 cells [1]) [nM] | AUC, PrestoBlue, BxPC-3 (BxPC-3 cells [1]) | Emax @ 1 µM, PrestoBlue, BxPC-3 (BxPC-3 cells [1]) [%] | IC50 (PANC-1 cells [2]) [nM] | AUC, PrestoBlue, PANC-1 (PANC-1 cells [2]) | Emax @ 9 µM, PrestoBlue, PANC-1 (PANC-1 cells [2]) [%] | IC50 (BxPC-3 cells [3]) [nM] | AUC, CyQUANT Direct, BxPC-3 (BxPC-3 cells [3]) | Emax @ 1 µM, CyQUANT Direct, BxPC-3 (BxPC-3 cells [3]) [%] | IC50 (PANC-1 cells [4]) [nM] | AUC, CyQUANT Direct, PANC-1 (PANC-1 cells [4]) | Emax @ 9 µM, CyQUANT Direct, PANC-1 (PANC-1 cells [4]) [%] | Cytotoxicity against BxPC-3 under 'low glucose' vs 'normal glucose' (in words) (BxPC-3 cells [5]) | Cytotoxicity against PANC-1 under 'low glucose' vs 'normal glucose' (in words) (PANC-1 cells [6]) | Inhibition of proliferation of BxPC-3 cells (in words) (BxPC-3 cells [7])
CCCCCCCC(=O)N1CCC[C@H]1C(=O)N[C@@H](CC1CCCCC1)C(=O)NC(C)(C)C(=O)NC(C)(C)C(=O)N[C@H](C(=O)N[C@H](C(=O)NC(C)(C)C(=O)NC(C)(C)C(=O)N[C@@H](C)CN(C)CCO)C(C)C)[C@@H](C)CC [(17)] (Octanoyl-P[Cha][Aib][Aib]IV[Aib][Aib]-{Alaψ(CH2NMeCH2CH2OH)}) | 400 | 5.1 ×10^−5 | 20.0 | 600 | 25.5 ×10^−5 | 8.1 | 500 | 5.6 ×10^−5 | 33.5 | 2000 | 43.7 ×10^−5 | 31.6 | – | – | –
CCCCCC(=O)N1CCC[C@H]1C(=O)N[C@@H](CC1CCCCC1)C(=O)NC(C)(C)C(=O)NC(C)(C)C(=O)N[C@H](C(=O)N[C@H](C(=O)NC(C)(C)C(=O)NC(C)(C)C(=O)N[C@@H](C)CN(C)CCO)C(C)C)[C@@H](C)CC [(16)] (Hexanoyl-P[Cha][Aib][Aib]IV[Aib][Aib]-{Alaψ(CH2NMeCH2CH2OH)}) | 400 | 5.0 ×10^−5 | 7.1 | 500 | 24.3 ×10^−5 | 7.7 | 400 | 5.2 ×10^−5 | 21.0 | 2000 | 42.1 ×10^−5 | 41.0 | – | – | –
CC[C@H](C)[C@H](NC(=O)C(C)(C)NC(=O)C(C)(C)NC(=O)[C@H](CC1CCCCC1)NC(=O)[C@@H]1CCCN1)C(=O)N[C@H](C(=O)NC(C)(C)C(=O)NC(C)(C)C(=O)N[C@@H](C)CN(C)CCO)C(C)C [(12)] (H-P[Cha][Aib][Aib]IV[Aib][Aib]-{Alaψ(CH2NMeCH2CH2OH)}) | > 1000 | 10.2 ×10^−5 | 104.0 | > 9000 | 90.6 ×10^−5 | 101.0 | > 1000 | 11 ×10^−5 | 115.0 | > 9000 | 92.6 ×10^−5 | 107.0 | inactivity | inactivity | –
CCCCCCCCCCCC(=O)N1CCC[C@H]1C(=O)N[C@@H](CC1CCCCC1)C(=O)NC(C)(C)C(=O)NC(C)(C)C(=O)N[C@H](C(=O)N[C@H](C(=O)NC(C)(C)C(=O)NC(C)(C)C(=O)N[C@@H](C)CN(C)CCO)C(C)C)[C@@H](C)CC [(19)] (Lauroyl-P[Cha][Aib][Aib]IV[Aib][Aib]-{Alaψ(CH2NMeCH2CH2OH)}) | 100 | 1.6 ×10^−5 | 4.6 | 200 | 21.4 ×10^−5 | 4.7 | 100 | 2.6 ×10^−5 | 18.3 | 800 | 38.9 ×10^−5 | 26.4 | – | – | –
CCCCCCCCCC(=O)N1CCC[C@H]1C(=O)N[C@@H](CC1CCCCC1)C(=O)NC(C)(C)C(=O)NC(C)(C)C(=O)N[C@H](C(=O)N[C@H](C(=O)NC(C)(C)C(=O)NC(C)(C)C(=O)N[C@@H](C)CN(C)CCO)C(C)C)[C@@H](C)CC [(18)] (Decanoyl-P[Cha][Aib][Aib]IV[Aib][Aib]-{Alaψ(CH2NMeCH2CH2OH)}) | 200 | 3.3 ×10^−5 | 5.5 | 200 | 22.2 ×10^−5 | 3.3 | 200 | 3.9 ×10^−5 | 30.0 | 2200 | 44.7 ×10^−5 | 41.7 | – | – | –
CCCC(=O)N1CCC[C@H]1C(=O)N[C@@H](CC1CCCCC1)C(=O)NC(C)(C)C(=O)NC(C)(C)C(=O)N[C@H](C(=O)N[C@H](C(=O)NC(C)(C)C(=O)NC(C)(C)C(=O)N[C@@H](C)CN(C)CCO)C(C)C)[C@@H](C)CC [(15)] (Butyryl-P[Cha][Aib][Aib]IV[Aib][Aib]-{Alaψ(CH2NMeCH2CH2OH)}) | 500 | 5.8 ×10^−5 | 16.3 | 900 | 33.6 ×10^−5 | 31.0 | 500 | 5.8 ×10^−5 | 33.8 | 4800 | 50.3 ×10^−5 | 53.7 | – | – | –
CCC(=O)N1CCC[C@H]1C(=O)N[C@@H](CC1CCCCC1)C(=O)NC(C)(C)C(=O)NC(C)(C)C(=O)N[C@H](C(=O)N[C@H](C(=O)NC(C)(C)C(=O)NC(C)(C)C(=O)N[C@@H](C)CN(C)CCO)C(C)C)[C@@H](C)CC [(14)] (Propionyl-P[Cha][Aib][Aib]IV[Aib][Aib]-{Alaψ(CH2NMeCH2CH2OH)}) | 600 | 6.8 ×10^−5 | 25.1 | 1800 | 38.4 ×10^−5 | 31.5 | 600 | 6.8 ×10^−5 | 27.3 | 7000 | 51.8 ×10^−5 | 51.5 | – | – | –
trichoderin A [(3)] | 400 | 5.4 ×10^−5 | 3.6 | 300 | 21.7 ×10^−5 | 4.7 | 400 | 4.9 ×10^−5 | 19.6 | 1500 | 41.0 ×10^−5 | 28.2 | – | – | only partially inhibited the proliferation
CC[C@H](C)[C@H](NC(=O)C(C)(C)NC(=O)C(C)(C)NC(=O)[C@H](CC1CCCCC1)NC(=O)[C@@H]1CCCN1C(C)=O)C(=O)N[C@H](C(=O)NC(C)(C)C(=O)NC(C)(C)C(=O)N[C@@H](C)CN(C)CCO)C(C)C [(13)] (Ac-P[Cha][Aib][Aib]IV[Aib][Aib]-{Alaψ(CH2NMeCH2CH2OH)}) | > 1000 | 9.5 ×10^−5 | 94.0 | 6000 | 58.9 ×10^−5 | 34.6 | > 1000 | 11 ×10^−5 | 111.3 | 8500 | 67.8 ×10^−5 | 48.1 | – | sufficient to induce cytotoxic effects | –
